From ChEMBL document CHEMBL1148448, “Fluorinated phenylcyclopropylamines. 1. Synthesis and effect of fluorine substitution at the cyclopropane ring on inhibition of microbial tyramine oxidase” (J Med Chem, 2004)

system: tyramine oxidase (microbial, copper amine oxidase); assay: Compound was evaluated for inhibition of Microbial tyramine oxidase; ni denotes no inhibition detected at millimolar concentrations

| IC50 | Structure (SMILES) |
| --- | --- |
| Not Active | Cl.NC[C@@H]1C[C@]1(F)c1ccccc1 (relative stereo) |
| Not Active | Cl.NCC[C@@H]1C[C@]1(F)c1ccccc1 (relative stereo) |
| Not Active | NC(=O)C1CC1(F)c1ccccc1 (trans isomer) |

| Structure (SMILES) | IC50 |
| --- | --- |
| Cl.NC1(c2ccccc2)CC1F (centres undefined) | Not Active |
